# Substitutions are numbered along the chain they refer to. Where no end group is shown, it is not given here.
# Columns and labels:
# Test in all cases: Homologous whole cell competition binding
# Conditions in all cases: homologous competition of 125I-sCT(8-32), whole cells, mean ± S.E.M., SEM
# hCTR L297A = biological target: T1, hCTR L297A (Homo sapiens, UniProt P30988, L297A)
# T1 construct: c-Myc (N); expressed in transfected cells
# T1 sequence (P30988 25-474 L297A): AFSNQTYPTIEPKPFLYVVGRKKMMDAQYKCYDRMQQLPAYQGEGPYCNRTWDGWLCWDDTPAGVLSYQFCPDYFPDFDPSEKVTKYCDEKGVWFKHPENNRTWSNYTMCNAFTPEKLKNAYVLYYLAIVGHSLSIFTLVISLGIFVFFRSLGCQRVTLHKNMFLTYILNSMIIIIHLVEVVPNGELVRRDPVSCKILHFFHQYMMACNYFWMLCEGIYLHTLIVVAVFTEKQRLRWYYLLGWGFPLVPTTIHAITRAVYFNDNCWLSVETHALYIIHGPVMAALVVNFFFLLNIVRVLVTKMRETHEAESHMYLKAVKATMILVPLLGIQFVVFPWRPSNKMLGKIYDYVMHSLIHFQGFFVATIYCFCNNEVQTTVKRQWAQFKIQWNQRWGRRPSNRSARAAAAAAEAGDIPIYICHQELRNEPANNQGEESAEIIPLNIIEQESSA
# How it was run: (§1)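 Values are pKi, derived from IC50 of unlabelled sCT(8-32) displacing ^125I-sCT(8-32) (25–100 pM) from whole cells after overnight incubation at 4 °C. Specific binding was scaled between tracer-only total and 1 μM cold-peptide background.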
# hCTR M367A = biological target: T2, hCTR M367A (Homo sapiens, UniProt P30988, M367A)
# T2 construct: c-Myc (N); expressed in transfected cells
# T2 sequence (P30988 25-474 M367A): T1 sequence (P30988 25-474 L297A) with A273L, M343A
# How it was run: as §1
# hCTR F359A = biological target: T3, hCTR F359A (Homo sapiens, UniProt P30988, F359A)
# T3 construct: expressed in transfected cells
# T3 sequence (P30988 25-474 F359A): T1 sequence (P30988 25-474 L297A) with A273L, F335A
# How it was run: as §1
# hCTR L291A = biological target: T4, hCTR L291A (Homo sapiens, UniProt P30988, L291A)
# T4 construct: expressed in transfected cells
# T4 sequence (P30988 25-474 L291A): T1 sequence (P30988 25-474 L297A) with L267A, A273L
# How it was run: as §1
substance,measurement,setting,value
VLGKLSQELHKLQTYPRTNTGSGTP-NH2 [sCT(8-32)],Ki,hCTR L297A,0.0631 nM
same,Ki,hCTR M367A,0.295 nM
same,Ki,hCTR F359A,0.219 nM
same,Ki,hCTR L291A,1.74 nM
